Assay results as given in patent US9856279B2 (AGIOS PHARMACEUTICALS, INC, priority 2011, dated 2018).

Target: IDH1 R132H (Homo sapiens, UniProt O75874, R132H)
Test: Assay for IDH1 R132H inhibitors (NADPH/aKG, resazurin detection)
Format: biochemical
Conditions: Table 3; enzyme assay, 50 minutes at room temperature; read-out: IC50 (IDH1 R132H Inhibition)
Method in brief: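 Read-out is resorufin fluorescence (Ex544/Em590) 5 min after adding a 30 μM resazurin detection mix. Before that, mutant enzyme (0.2 μg/ml in its mix) ran 50 min at room temperature with compound, 8 uM NADPH and 2 mM aKG (mix levels) in Tris pH 7.5 with NaCl, MgCl2, BSA.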

IDH1 R132H, sequence (O75874 whole entry R132H): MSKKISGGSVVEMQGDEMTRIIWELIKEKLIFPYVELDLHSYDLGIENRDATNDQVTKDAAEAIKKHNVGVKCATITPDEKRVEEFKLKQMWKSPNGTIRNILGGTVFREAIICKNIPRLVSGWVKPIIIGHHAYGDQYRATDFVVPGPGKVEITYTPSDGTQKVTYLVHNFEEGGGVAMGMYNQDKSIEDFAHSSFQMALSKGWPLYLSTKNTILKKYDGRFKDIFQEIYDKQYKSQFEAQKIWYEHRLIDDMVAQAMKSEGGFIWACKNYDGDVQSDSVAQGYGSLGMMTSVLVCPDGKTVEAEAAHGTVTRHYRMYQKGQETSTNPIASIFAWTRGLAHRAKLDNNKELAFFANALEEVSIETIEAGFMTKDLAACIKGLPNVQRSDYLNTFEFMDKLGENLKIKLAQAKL

`COCCC(=O)N1CCN(c2nc(C(C)C)c(-c3ccc(C(F)(F)F)cc3)cc2C#N)C[C@H]1C` [Compound 189, (R)-6-isopropyl-2-(4-(3-methoxypropanoyl)-3-methylpiperazin-1-yl)-5-(4-(trifluoromethyl)phenyl)-nicotinonitrile] and `COCCC(=O)N1CCN(c2nc(C3CC3)c(-c3ccc(C(F)(F)F)cc3)cc2C#N)C[C@H]1C` [Compound 226, (R)-6-cyclopropyl-2-(4-(3-methoxypropanoyl)-3-methylpiperazin-1-yl)-5-(4-(trifluoromethyl)phenyl)nicotinonitrile] cannot be ordered by IC50: 1000 to 5000 nM for the first, no more than 1000 nM for the second.

First: N#Cc1cc(-c2ccccc2)c(-c2ccccc2)nc1N1CCN(C(=O)Cc2ccccc2)CC1 [Compound 123, 5,6-diphenyl-2-(4-(2-phenylacetyl)piperazin-1-yl)nicotinonitrile]
Second: CC(C)c1nc(N2C[C@@H](C)N(C(=O)Cc3ccccc3)[C@@H](C)C2)c(C#N)cc1-c1ccccc1 [Compound 140, 2-((3S,5R)-3,5-dimethyl-4-(2-phenylacetyl)piperazin-1-yl)-6-isopropyl-5-phenylnicotinonitrile]
The IC50 of the first is higher: 5000 to 15000 nM for the first, 1000 to 5000 nM for the second. The second is the more potent here.

First: CC(C)c1cc(-c2cccc(F)c2)c(C#N)c(N2CC(C)N(C(=O)c3ccoc3)C(C)C2)n1 (stereo not shown) [Compound 134, 4-(3-fluorophenyl)-2-(4-(furan-3-carbonyl)-3,5-dimethylpiperazin-1-yl)-6-isopropylnicotinonitrile]
Second: CC(C)c1nc(N2C[C@@H](C)N(C(=O)c3ccoc3)[C@@H](C)C2)c(C#N)cc1-c1ccccc1 [Compound 141, 2-((3S,5R)-4-(furan-3-carbonyl)-3,5-dimethylpiperazin-1-yl)-6-isopropyl-5-phenylnicotinonitrile]
The IC50 of the first is lower: 1000 to 5000 nM for the first, 5000 to 15000 nM for the second. The first is the more potent here.

First: CC(C)c1cc(-c2ccccc2)c(C#N)c(N2CCN(C(=O)c3ccco3)C(C)C2)n1 (stereo not shown) [Compound 107, 2-(4-(furan-2-carbonyl)-3-methylpiperazin-1-yl)-6-isopropyl-4-phenylnicotinonitrile]
Second: N#Cc1c(-c2ccccc2)cc(C2CCCCC2)nc1N1CCN(C(=O)c2ccco2)CC1 [Compound 137, 6-cyclohexyl-2-(4-(furan-2-carbonyl)piperazin-1-yl)-4-phenylnicotinonitrile]
The IC50 of the first is lower: 1000 to 5000 nM for the first, 5000 to 15000 nM for the second.

`COCCC(=O)N1CCN(c2nc(C3CC3)c(-c3ccccc3F)cc2C#N)C[C@H]1C` [Compound 249, (R)-6-cyclopropyl-5-(2-fluorophenyl)-2-(4-(3-methoxypropanoyl)-3-methylpiperazin-1-yl)nicotinonitrile] and `COCCC(=O)N1CCN(c2nc(C(C)C)c(-c3cc4ccccc4o3)cc2C#N)C[C@H]1C` [Compound 209, (R)-5-(benzofuran-2-yl)-6-isopropyl-2-(4-(3-methoxypropanoyl)-3-methylpiperazin-1-yl)nicotinonitrile] cannot be ordered by IC50: no more than 1000 nM for the first, 1000 to 5000 nM for the second.

`CC(C)c1ccc(-c2cc(C#N)c(N3CCN(C(=O)c4ccoc4)[C@H](C)C3)nc2C(C)C)cc1` [Compound 206, (R)-2-(4-(furan-3-carbonyl)-3-methylpiperazin-1-yl)-6-isopropyl-5-(4-isopropylphenyl)nicotinonitrile] gave an IC50 of 1000 to 5000 nM.

Same assay, conditions: enzyme assay of Example 12; read-out: IDH1R132H IC50

`COCCC(=O)N1CCN(c2nc(C3CC3)c(N3CCN(C(C)=O)CC3)cc2C#N)C[C@H]1C` [Compound 368, (R)-5-(4-acetylpiperazin-1-yl)-6-cyclopropyl-2-(4-(3-methoxypropanoyl)-3-methylpiperazin-1-yl)nicotinonitrile] and `COCCC(=O)N1CCN(c2nc(C3CC3)c(N3CCOCC3)cc2C#N)C[C@H]1C` [Compound 375, (R)-6-cyclopropyl-2-(4-(3-methoxypropanoyl)-3-methylpiperazin-1-yl)-5-morpholinonicotinonitrile] fall in the same range of IC50: 500 to 1000 nM for the first, 500 to 1000 nM for the second.

`COCCC(=O)N1CCN(c2nc(C3CC3)c(-c3cc(Cl)nc(C#N)c3)cc2C#N)C[C@H]1C` [Compound 673, (R)-6′-chloro-2-cyclopropyl-6-(4-(3-methoxypropanoyl)-3-methylpiperazin-1-yl)-[3,4′-bipyridine]-2′,5-dicarbonitrile] and `COCCC(=O)N1CCN(c2nc(C3CC3)c(-c3ccnn3C)cc2C#N)C[C@H]1C` [Compound 371, (R)-6-cyclopropyl-2-[4-(3-methoxy-propionyl)-3-methyl-piperazin-1-yl]-5-(2-methyl-2H-pyrazol-3-yl)-nicotinonitrile] fall in the same range of IC50: 500 to 1000 nM for the first, 500 to 1000 nM for the second.

`N#Cc1cc(-c2ccc3[nH]ncc3c2)c(C2CC2)nc1N1CCN(C(=O)CC(F)(F)F)[C@H](C2CC2)C1` [Compound 552] and `Cc1cc2c(-c3cc(C#N)c(N4CCN(C(=O)CC(F)(F)F)[C@H](C5CC5)C4)nc3C3CC3)cccc2cn1` [Compound 471, (R)-6-cyclopropyl-2-(3-cyclopropyl-4-(3,3,3-trifluoropropanoyl)piperazin-1-yl)-5-(3-methylisoquinolin-5-yl)nicotinonitrile] cannot be ordered by IC50: less than 500 nM for the first, less than 500 nM for the second.

First: N#Cc1cc(-c2cccc3cnccc23)c(C2CC2)nc1N1CCN(C(=O)C2CC2)C(CC(F)(F)F)C1 (stereo not shown) [Compound 423, 2-(4-(cyclopropanecarbonyl)-3-(2,2,2-trifluoroethyl)piperazin-1-yl)-6-cyclopropyl-5-(isoquinolin-5-yl)nicotinonitrile]
Second: N#Cc1cc(-c2cccc3nccnc23)c(C2CC2)nc1N1CCN(C(=O)C2CC2)[C@H](C2CC2)C1 [Compound 531, (R)-2-(4-(cyclopropanecarbonyl)-3-cyclopropylpiperazin-1-yl)-6-cyclopropyl-5-(quinoxalin-5-yl)nicotinonitrile]
The IC50 of the first is higher: 500 to 1000 nM for the first, less than 500 nM for the second.

`COCCC(=O)N1CCN(c2nc(C3CC3)c(-c3ccc(C(=O)OC)cc3)cc2C#N)C[C@H]1C` [Compound 665, (R)-methyl-4-(5-cyano-2-cyclopropyl-6-(4-(3-methoxypropanoyl)-3-methylpiperazin-1-yl)pyridin-3-yl)benzoate] and `COCCC(=O)N1CCN(c2nc(C3CC3)c(-c3ccc(N4CCNCC4)nc3)cc2C#N)C[C@H]1C` [Compound 396, (R)-2-cyclopropyl-6-[4-(3-methoxy-propionyl)-3-methyl-piperazin-1-yl]-6′-piperazin-1-yl-[3,3′]bipyridinyl-5-carbonitrile] cannot be ordered by IC50: less than 500 nM for the first, less than 500 nM for the second.

`C[C@@H]1CN(c2nc(C3CC3)c(-c3cccc4c3CN(C)C4=O)cc2C#N)CCN1C(=O)C1CC1` [Compound 461, (R)-2-(4-(cyclopropanecarbonyl)-3-methylpiperazin-1-yl)-6-cyclopropyl-5-(2-methyl-1-oxoisoindolin-4-yl)nicotinonitrile] and `N#Cc1cc(-c2ccnc(N)n2)c(C2CC2)nc1N1CCN(C(=O)C2CC2)[C@H](C2CC2)C1` [Compound 507, (R)-5-(2-aminopyrimidin-4-yl)-2-(4-(cyclopropanecarbonyl)-3-cyclopropylpiperazin-1-yl)-6-cyclopropylnicotinonitrile] fall in the same range of IC50: 500 to 1000 nM for the first, 500 to 1000 nM for the second.

Compared with `COCCC(=O)N1CCN(c2nc(C3CC3)c(-c3cccc(S(C)(=O)=O)c3)c(C)c2C#N)C[C@H]1C` [Compound 329, (R)-6-cyclopropyl-5-(3-methanesulfonyl-phenyl)-2-[4-(3-methoxy-propionyl)-3-methyl-piperazin-1-yl]-4-methyl-nicotinonitrile], `C=Cc1cc(-c2c(C3CC3)nc(N3CCN(C(=O)CCC4CC4)[C@H](C4CC4)C3)c(C#N)c2C)ccn1` [Compound 825, (R)-2-cyclopropyl-6-(3-cyclopropyl-4-(3-cyclopropylpropanoyl)piperazin-1-yl)-4-methyl-2′-vinyl-3,4′-bipyridine-5-carbonitrile] is lower in IC50: 500 to 1000 nM for the first, less than 500 nM for the second.
